Results reported in US20250213448A1, “COMPOSITION FOR PROTECTING SKIN CONTAINING A THYMOL ESTER-BASED COMPOUND” (Amorepacific Corporation, priority 2024, published 2025).

Tested on: Normal human epidermal melanocytes
Assay: Damage inhibition experiment using normal human melanocytes (UVB photoaging, real-time PCR gene expression)
Assay type: cell-based
Experimental: Melanocytes isolated from normal human skin (Normal human epidermal melanocytes) were treated with ultraviolet B (312 nm) at 20 mJ each, once a day, for two days, and cultured for one month. Melasolv was dissolved in DMSO at 1000×, irradiated with ultraviolet rays, and then immediately placed in a culture medium at 1 and 5 ppm and treated. The cells were grown in a 37° C., 5% CO2 incubator while changing the culture medium containing the experimental material every two days. After the experiment was completed, the cells were dissolved in TRIzol and collected, and total RNA was isolated. Then, cDNA was synthesized therefrom and real-time PCR was performed to compare the relative expression levels of each gene. The RNA was quantified and the same amount of RNA was added to each experimental group, and the expression of each gene was corrected by the expression of GAPDH, a house-keeping gene, to compare the relative expression levels.
The gene primers used were purchased from APPLIED BIOSYSTEMS as follows: […]

Structure (SMILES): COc1cc(/C=C/C(=O)Oc2cc(C)ccc2C(C)C)cc(OC)c1OC [Melasolv, (5-methyl-2-propan-2-ylphenyl) (E)-3-(3,4,5-trimethoxyphenyl) prop-2-enoate]
- expression of the XPA gene (UVB-photoaged melanocytes, 5 ppm of Melasolv, compared with control group, FIG. 4): increased even higher than that of the control group
- expression of aging genes (p16, p21) (melanocytes irradiated with UVB (312 nm, 20 mJ, once a day for two days), cultured one month, Melasolv at 1 and 5 ppm, real-time PCR corrected by GAPDH, FIGS. 1 and 2): inhibited in a concentration-dependent manner
- expression of DNA repair genes (APEX1, XPA, RPA1) that had decreased due to photoaging (melanocytes irradiated with UVB (312 nm, 20 mJ, once a day for two days), cultured one month, Melasolv at 1 and 5 ppm, real-time PCR corrected by GAPDH, FIGS. 3 to 5): increased
